# Measured values from PMC12254355 (Nature Communications, 2025).
# Ends that are not written are not given here.
# Legend:
# P. aeruginosa PA14 = details: PA14, 24 h
# HEK293T cells = details: for CC50 vs HEK293T cells (source data of Figure 4a): 24 h
# human red blood cells = details: pH 7.4
# A. baumannii ATCC 19606 = details: ATCC 19606, 24 h
# E. coli ATCC 11775 = details: ATCC 11775, 24 h
# E. coli AIC221 = details: AIC221, 24 h
# P. aeruginosa PAO1 = details: PAO1, 24 h
# [1] = test system: E. faecium ATCC 700221 - VRE; details: ATCC 700221, 24 h
Molecule,"Minimal Inhibitory Concentration, P. aeruginosa PA14 (-) (P. aeruginosa PA14) [µmol/L]",CC50 vs HEK293T cells (HEK293T cells) [µM],SIcytotoxicity (HEK293T cells),CC50 vs HEK293T cells (source data of Figure 4a) (HEK293T cells) [µM],HC50 (human red blood cells),"Minimal Inhibitory Concentration, A. baumannii ATCC 19606 (-) (A. baumannii ATCC 19606) [µmol/L]","Minimal Inhibitory Concentration, E. coli ATCC 11775 (-) (E. coli ATCC 11775) [µmol/L]","Minimal Inhibitory Concentration, E. coli AIC221 (-) (E. coli AIC221) [µmol/L]","Minimal Inhibitory Concentration, P. aeruginosa PAO1 (-) (P. aeruginosa PAO1) [µmol/L]","Minimal Inhibitory Concentration, E. faecium ATCC 700221 - VRE (+) [1] [µmol/L]"
FLKKIWRSKLVKRL [UniprotKB-9],16,20,1.3,20.18,219457.0,,,,,
KRKGYLRLVPEERIWQKGLWWLRRLETDSDKLQK [ISOB-3],,,,,1.085e+083,,,,,
RRVKRFKKFFMKLKKSVKKRVMKFFK [UniprotKB-5],8,9,1.1,8.885,103.8,64,32,32,8,8
RKFKWGKLFSTAKKLYKKGKKLSKNKNFKKALK [UniprotKB-12],4,,11.9,23.71,604.3,64,32,2,4,32
RKFKWGKLFSTAKKLYKKGKKLSK [UniprotKB-16],4,,5.9,23.72,2082.0,32,8,4,4,32
KKWRELSRLSRVLQIL [Conoserver-14],,,7.3,,1826.0,16,16,8,64,32
RHRIVRTYIAKFGLK [ISOB-2],,,7.5,,1.085e+083,,,64,,32
KWLGKLGVILSHL [UniprotKB-15],,,1.4,45.97,1.374e+045,64,32,32,,64
RQEYPTKRLRAKMLNSKFIKLIKR [Conoserver-12],,,5.8,,1.085e+083,,,32,,16
KRLKGFAKKLWNSKLARKIRTKGLKYVKNFAK [UniprotKB-7],,,3.7,14.78,207.9,,,,,8
SFKKILSAGKKLFKKAKKL [Arachnoserver-29],16,,4.3,17.1,1.085e+083,,16,4,16,16
KQKYLIKRSRAKMQNHKLFKLTKR [Conoserver-16],,,1.5,,1.085e+083,,,,,64
LTKWLGKLGVIL [UniprotKB-11],,,4.4,,146.7,,,,,
KKQIRLYLLKYYGKKSSSKSVRKIVISK [Arachnoserver-20],,,2.8,,896.7,,,,,32
FIKKLWRSKLAKKLRAKGRELLK [UniprotKB-17],16,,3.9,30.97,4.224e+042,32,16,16,8,16
RKFKWGSFKKILSAGKKLFKKAKKLSK [Arachnoserver-2],4,10,9.9,9.929,108.1,32,8,1,4,8
RRASPLWKRRRFLSMLKARAKRTGYK [Conoserver-3],,,6.0,,459.2,,,64,64,32
PLWKRRRFLSMLKARAKR [Conoserver-4],,,2.6,,707.7,,,,64,32
KRRRASPLWKRRRFLSMLKARAK [UniprotKB-10],,,1.3,43.12,627.2,,,,,32
RKRRRFISMLKARAKRR [Conoserver-15],,,0.7,22.52,1.085e+083,,,,,32
GKWLISSLVAKHL [UniprotKB-6],,19,0.3,19.46,686.0,,,,,
LRAKMLNSKFIKL [Conoserver-5],,,,,1.085e+083,,,,,
RLRAKMRNSKLFKLTKR [Conoserver-10],,,,,1.085e+083,,,,,
KLWNSKLARKIRTKGLKYVKNFAK [UniprotKB-3],,,1.5,11.61,8.23e+034,,,,,32
QPRRVKRFKKFFKKLKNSVKKRAKKF [ISOB-7],,,4.0,,569.0,,,64,64,32
RRVKRFKKFFKKL [ISOB-6],64,,6.5,,1.085e+083,,,,32,32
RRVKRFKKFFMKL [UniprotKB-18],,,3.1,,1.827e+053,,,64,32,32
CC(C)C[C@H](NC(=O)[C@H](Cc1ccccc1)NC(=O)CNC(=O)[C@H](CCCNC(=N)N)NC(=O)[C@H](CCCNC(=N)N)NC(=O)[C@H](CCC(N)=O)NC(=O)[C@H](Cc1c[nH]c2ccccc12)NC(=O)[C@H](CC(C)C)NC(=O)[C@@H]1CCCN1C(=O)[C@H](CO)NC(=O)[C@H](C)NC(=O)[C@H](CCCNC(=N)N)NC(=O)CNC(=O)[C@H](CCCNC(=N)N)NC(=O)[C@@H](N)CCCCN)C(=O)N[C@@H](CO)C(=O)N[C@@H](CCCCN)C(=O)N[C@@H](CC(C)C)C(=O)N[C@@H](CCCCN)C(=O)N[C@@H](C)C(=O)N[C@@H](CCCNC(=N)N)C(=O)N[C@@H](C)C(=O)N[C@@H](CCCCN)C(=O)N[C@@H](CCCNC(=N)N)C(=O)N[C@@H](CC(N)=O)C(=O)NCC(=O)N[C@@H](C)C(=O)N[C@@H](Cc1ccccc1)C(=O)N[C@@H](Cc1c[nH]cn1)C(=O)N[C@@H](CC(C)C)C(=O)N1CCC[C@H]1C(=O)N[C@@H](CCCNC(=N)N)C(=O)O [Conoserver-7],,,2.5,,1.085e+083,,,,64,32
KRRRASPLWKRRRFLSMLKARAK [Conoserver-2],,,3.6,,1570.0,,,,64,32
